# From PMC8286599 (Gut Pathogens, 2021)
# Like-named read-outs stand apart in the source and are kept apart here.
# Legend:
# MDR-EAEC strains [1] = test: MIC and MBC by broth microdilution with resazurin; type: cell-based, enteroaggregative Escherichia coli; conditions: infant diarrhoea isolate
# Excerpt: (§1) The characterised MDR field strains of EAEC (E1; E2; E3), S. Enteritidis (S1; S2; S3), and S. Typhimurium (ST1; ST2; ST3) maintained in the laboratory repository of Meat Safety Laboratory of ICAR-National Research Centre on Meat, Hyderabad re-validated using PCR assays were used to evaluate the in vitro antibacterial efficacy of phytochemicals. E. coli ATCC 25922 was used as the quality control strain.
# (§2) The antimicrobial efficacy of identified phytochemicals against multi-drug resistant EAEC and NTS strains was determined by estimating the minimum inhibitory concentration (MIC) and minimum bactericidal concentrations (MBC).
# (§3) Subsequent to the incubation period, resazurin dye (0.015 %) was added to all the wells to determine the dye reduction (pink) and thereby the bacterial inhibition.
# [2] = system: MDR-S. Enteritidis strains; test: MIC and MBC by broth microdilution with resazurin; type: cell-based, Salmonella Enteritidis; conditions: poultry droppings isolate
# Excerpt: as §1, §2, §3
# [3] = system: MDR-S. Typhimurium strains; test: MIC and MBC by broth microdilution with resazurin; type: cell-based, Salmonella Typhimurium; conditions: poultry droppings isolate
# Excerpt: as §1, §2, §3
# Haemolytic assay = type: cell-based; conditions: read-out: Haemolysis; for hemolysis at 0.5 X MIC: 0.50X MIC
# Method: The haemolytic assay of the individual phytochemical was performed by measuring the release of haemoglobin from sheep and human ‘O’ erythrocytes at 540 nm. The percentage of haemolysis was calculated as (Asample – APBS)/ (ATriton−X – APBS) ×100, in which Asample is the absorbance of phytochemical treatment, APBS is the absorbance of untreated control with PBS, and ATriton−X is the absorbance of lysed cells treated with Triton X-100 measured at 540 nm.
# MDR-EAEC strains [4] = test: Stability assay, pH (MIC)
# Excerpt: (§4) To explore the utility of phytochemicals as therapeutic molecules and their stability, individual phytochemicals were exposed to cationic salts, and different pH levels followed by analysing their MIC and MBC values against test strains as described earlier.
# (§5) Subsequent to exposure to varied conditions, the antimicrobial activity of the phytochemicals was estimated by determining their MIC and MBC values against all the selected MDR strains of EAEC, S. Enteritidis, and S. Typhimurium as described earlier.
# [5] = system: MDR-S. Enteritidis strains; test: Stability assay, pH (MIC)
# Excerpt: as §4, §5
# [6] = system: MDR-S. Typhimurium strains; test: Stability assay, pH (MIC)
# Excerpt: as §4, §5
# MDR-EAEC strains [7] = test: Stability assay, cationic salts (MIC)
# Excerpt: as §4, §5
# [8] = system: MDR-S. Enteritidis strains; test: Stability assay, cationic salts (MIC)
# Excerpt: as §4, §5
# [9] = system: MDR-S. Typhimurium strains; test: Stability assay, cationic salts (MIC)
# Excerpt: as §4, §5
# [10] = human 'O' erythrocytes, Human RBCs
smiles,measurement,setting,value
"O=C/C=C/c1ccccc1 [Cinnamaldehyde, cinnamaldehyde]",MBC,MDR-EAEC strains [1]; EAEC (E1),0.50 µl/ml
same,MIC,MDR-EAEC strains [1]; EAEC (E1),0.50 µl/ml
same,MBC,MDR-EAEC strains [1]; EAEC (E2),1.0 µl/ml
same,MIC,MDR-EAEC strains [1]; EAEC (E2),0.50 µl/ml
same,MBC,MDR-EAEC strains [1]; EAEC (E3),0.50 µl/ml
same,MIC,MDR-EAEC strains [1]; EAEC (E3),0.25 µl/ml
same,MBC,[2]; S. Enteritidis (S1),0.50 µl/ml
same,MIC,[2]; S. Enteritidis (S1),0.12 µl/ml
same,MBC,[2]; S. Enteritidis (S2),0.50 µl/ml
same,MIC,[2]; S. Enteritidis (S2),0.12 µl/ml
same,MBC,[2]; S. Enteritidis (S3),0.50 µl/ml
same,MIC,[2]; S. Enteritidis (S3),0.12 µl/ml
same,MBC,[3]; S. Typhimurium (ST1),0.50 µl/ml
same,MIC,[3]; S. Typhimurium (ST1),0.25 µl/ml
same,MBC,[3]; S. Typhimurium (ST2),0.50 µl/ml
same,MIC,[3]; S. Typhimurium (ST2),0.25 µl/ml
same,MBC,[3]; S. Typhimurium (ST3),1.0 µl/ml
same,MIC,[3]; S. Typhimurium (ST3),0.12 µl/ml
same,hemolysis at 0.25 X MIC,Haemolytic assay; [10],0.554%
same,hemolysis at 0.5 X MIC,Haemolytic assay; [10],0.696%
same,hemolysis at 1 X MIC,Haemolytic assay; [10],2.03%
same,hemolysis at 2 X MIC,Haemolytic assay; [10],5%
same,hemolysis at 4 X MIC,Haemolytic assay; [10],12.8%
same,hemolysis at 8 X MIC,Haemolytic assay; [10],19.1%
same,hemolysis at 0.25 X MIC,"Haemolytic assay; sheep erythrocytes, Sheep RBCs",0.109%
same,hemolysis at 0.5 X MIC,"Haemolytic assay; sheep erythrocytes, Sheep RBCs",0.274%
same,hemolysis at 1 X MIC,"Haemolytic assay; sheep erythrocytes, Sheep RBCs",3.61%
same,hemolysis at 2 X MIC,"Haemolytic assay; sheep erythrocytes, Sheep RBCs",11.7%
same,hemolysis at 4 X MIC,"Haemolytic assay; sheep erythrocytes, Sheep RBCs",12.5%
same,hemolysis at 8 X MIC,"Haemolytic assay; sheep erythrocytes, Sheep RBCs",22%
same,MIC at given pH,"MDR-EAEC strains [4]; pH 4, strain E1",0.5 µl/ml
same,MIC at given pH,"MDR-EAEC strains [4]; pH 4, strain E2",0.5 µl/ml
same,MIC at given pH,"MDR-EAEC strains [4]; pH 4, strain E3",0.5 µl/ml
same,MIC at given pH,"MDR-EAEC strains [4]; pH 6, strain E1",0.5 µl/ml
same,MIC at given pH,"MDR-EAEC strains [4]; pH 6, strain E2",0.5 µl/ml
same,MIC at given pH,"MDR-EAEC strains [4]; pH 6, strain E3",0.5 µl/ml
same,MIC at given pH,"MDR-EAEC strains [4]; pH 8, strain E1",0.5 µl/ml
same,MIC at given pH,"MDR-EAEC strains [4]; pH 8, strain E2",0.5 µl/ml
same,MIC at given pH,"MDR-EAEC strains [4]; pH 8, strain E3",0.5 µl/ml
same,MIC at given pH,"[5]; pH 4, strain S1",0.5 µl/ml
same,MIC at given pH,"[5]; pH 4, strain S2",0.5 µl/ml
same,MIC at given pH,"[5]; pH 4, strain S3",0.5 µl/ml
same,MIC at given pH,"[5]; pH 6, strain S1",0.5 µl/ml
same,MIC at given pH,"[5]; pH 6, strain S2",0.5 µl/ml
same,MIC at given pH,"[5]; pH 6, strain S3",0.5 µl/ml
same,MIC at given pH,"[5]; pH 8, strain S1",0.5 µl/ml
same,MIC at given pH,"[5]; pH 8, strain S2",0.5 µl/ml
same,MIC at given pH,"[5]; pH 8, strain S3",1.0 µl/ml
same,MIC at given pH,"[6]; pH 4, strain ST1",0.5 µl/ml
same,MIC at given pH,"[6]; pH 4, strain ST2",1.0 µl/ml
same,MIC at given pH,"[6]; pH 4, strain ST3",1.0 µl/ml
same,MIC at given pH,"[6]; pH 6, strain ST1",0.5 µl/ml
same,MIC at given pH,"[6]; pH 6, strain ST2",1.0 µl/ml
same,MIC at given pH,"[6]; pH 6, strain ST3",1.0 µl/ml
same,MIC at given pH,"[6]; pH 8, strain ST1",0.5 µl/ml
same,MIC at given pH,"[6]; pH 8, strain ST2",1.0 µl/ml
same,MIC at given pH,"[6]; pH 8, strain ST3",1.0 µl/ml
same,MIC with cationic salt,"MDR-EAEC strains [7]; 2 mM MgCl2, strain E1",0.5 µl/ml
same,MIC with cationic salt,"MDR-EAEC strains [7]; 2 mM MgCl2, strain E2",0.5 µl/ml
same,MIC with cationic salt,"MDR-EAEC strains [7]; 2 mM MgCl2, strain E3",0.5 µl/ml
same,Change of MIC values with cationic salts,"MDR-EAEC strains [7]; 150 mM NaCl and 2 mM MgCl2, MDR-EAEC strains",remained almost similar
same,MIC with cationic salt,"MDR-EAEC strains [7]; 150 mM NaCl, strain E1",0.5 µl/ml
same,MIC with cationic salt,"MDR-EAEC strains [7]; 150 mM NaCl, strain E2",0.5 µl/ml
same,MIC with cationic salt,"MDR-EAEC strains [7]; 150 mM NaCl, strain E3",0.5 µl/ml
same,MIC with cationic salt,"[8]; 2 mM MgCl2, strain S1",0.5 µl/ml
same,MIC with cationic salt,"[8]; 2 mM MgCl2, strain S2",0.5 µl/ml
same,MIC with cationic salt,"[8]; 2 mM MgCl2, strain S3",0.5 µl/ml
same,MIC with cationic salt,"[8]; 150 mM NaCl, strain S1",0.5 µl/ml
same,MIC with cationic salt,"[8]; 150 mM NaCl, strain S2",0.5 µl/ml
same,MIC with cationic salt,"[8]; 150 mM NaCl, strain S3",0.5 µl/ml
same,MIC with cationic salt,"[9]; 2 mM MgCl2, strain ST1",0.5 µl/ml
same,MIC with cationic salt,"[9]; 2 mM MgCl2, strain ST2",0.5 µl/ml
same,MIC with cationic salt,"[9]; 2 mM MgCl2, strain ST3",1.0 µl/ml
same,MIC with cationic salt,"[9]; 150 mM NaCl, strain ST1",0.5 µl/ml
same,MIC with cationic salt,"[9]; 150 mM NaCl, strain ST2",0.5 µl/ml
same,MIC with cationic salt,"[9]; 150 mM NaCl, strain ST3",1.0 µl/ml
